Measurements: paper PMC3446905, “Puerarin Suppresses Proliferation of Endometriotic Stromal Cells Partly via the MAPK Signaling Pathway Induced by 17ß-estradiol-BSA” (PLoS ONE, 2012)

Test system: T1, estrogen receptors (ERs; subtype not resolved)
T1 construct: endogenous receptors in whole endometriotic stromal cells (ESCs)
Test: whole-cell competitive radioligand binding against [3H]-E2
Assay type: cell-based, Homo sapiens
Description: whole-cell competitive radioligand binding against [3H]-E2 on estrogen receptors (ERs; subtype not resolved) | puerarin also competed against the specific binding of [^3H]-E2 to ERs, and the IC50 of puerarin was determined

O=c1c(-c2ccc(O)cc2)coc2c([C@@H]3O[C@H](CO)[C@@H](O)[C@H](O)[C@H]3O)c(O)ccc12 [puerarin]
IC50: 870 nM
